From patent US20240091227A1, “Use Of 2-Phenyl-6-(1H-Imidazol-1-YL) Quinazoline For Treating Neurodegenerative Diseases, Preferably Alzheimer's Disease” (ROTTAPHARM BIOTECH S.R.L., priority 2019, published 2024) come the findings set out here.

The test system of series [1] is Rats treated with scopolamine. Briefly: Morris water maze in scopolamine-induced memory impairment. It is filed as in vivo, rat. The conditions noted are these: scopolamine 1 mg/kg sc, CR4056 20 mg/kg os, mean over four days. As for the experimental part: FIG. 4 reports the results of the Morris Water Maze test in the model of scopolamine-induced memory loss. Rats treated with scopolamine (Sco, 1 mg/kg) or physiological solution (Sal) received CR4056 20 mg/kg/die or its vehicle (MC). Data represented the mean time spent to reach the hidden platform over four days. Two way ANOVA. Tukey Comparison test. ** P<0.01.
The Morris water maze test was used to evaluate cognitive function distinct in two phases: first, the acquisition and spatial localization of a hidden platform and, subsequently, the processing, consolidating, retaining and then retrieving the acquired information to successfully locate the platform to escape the water.
Place navigation required the rats to learn to swim from any starting position to the escape platform, thereby acquiring a long-term memory of the platform's spatial location. Animals were placed into various quadrants of the pool and the time elapsed and the distance traversed to reach the hidden platform was recorded. Various objects were placed in the testing room so that the animals used these visual cues as a means of navigating in the Maze. After repeated entry into the Maze, the animals became more and more efficient at locating the platform, thus escaping the water by learning the location of the platform relative to the distal visual cues. […]

The test system of series [2] is Iba1-positive microglial cells. Briefly: Spinal microglia activation (Iba1 immunofluorescence) in CFA inflammatory model. It is filed as in vivo, rat. Particulars: rats, 6 mg/kg os single administration 72 hours post-CFA, evaluated after 90 minutes. The method, then:
FIG. 2 reports the results of spinal microglia activation at 72 hours following CFA injection. The quantification of microglia activation in ipsilateral L5 SC dorsal horn was determined as the number of Iba1-positive microglia, displaying a clearly swollen cell body with reduced processes, within the analyzed selected frame of the superficial laminae. Data represent the mean of 5 animals/group. Ordinary one way ANOVA followed by Dunnet's multiple comparison (**p<0.05).
Microglial cells activation was evaluated by immunofluorescence staining, measuring the expression of ionized calcium-binding adapter molecule 1 (Iba-1) in ipsilateral L5 spinal cord in complete Freund's adjuvant (CFA) model. […]
CR4056 (6 mg/kg, os) was administered 72 hours post-CFA and after 90 minutes animals were deeply anesthetized with an overdose of urethane (1.5 g·kg−1, i.p.) and then transcardially perfused with 250 mL 0.9% saline containing 1% heparin (5000 UI·mL−1), followed by 500 mL 10% formalin (i.e., 4% paraformaldehyde, Bio-Optica Spa, Milan, Italy). […] For each section, a representative image of both the ipsilateral and the contralateral dorsal horn (laminae I-III) of the L5 spinal cord was captured at 20× magnification, using consistent exposure times across all sections, and then analysed. […] For each animal (n=5 per group) 6 non-consecutive sections were analysed and results were averaged.

A further series has as its system IL-1β. Briefly: IL-1β gene expression in IL-1β-stimulated U373 MG astrocytoma cells (RT-PCR). The conditions noted are these: IL-1β 2 ng/ml. In kind it is cell-based, human. As for the experimental part:
A model of astrocytes, the human glioblastoma astrocytoma cell line U373 MG (Uppsala), was used for these experiments. Adherent cells were grown in DMEM medium supplemented with 10% FBS at 37° C. with CO2. 72 hours after plating, cells were treated for 1 h with 2-phenyl-6-(1H-imidazol-1-yl)quinazoline (CR4056) (10 μM) prepared according to EP2066653 and then stimulated with the pro-inflammatory cytokine IL-1β (2 ng/mL) for further 6 and 24 h.
At the end of incubation period, total RNA was obtained and retro-transcribed using the High-Capacity cDNA Reverse Transcription Kit (Thermo Fisher Scientific). The levels of expression of COX-2, IL-1β, IL-6 and TNFα were evaluated by RT-PCR analysis, performed using the Applied Biosystems 7500 Fast Real-Time PCR System using specific TaqMan assays and, as an endogenous control, the 18S Pre-Developed TaqMan® Assay (Thermo Fisher Scientific). The data analysis, with normalisation on 18S amplified values, was according to Thermo Fisher Scientific specific instructions for gene expression relative quantification. All individual data were the result of at least three different measurements for each sample.
Percentage of gene expression inhibition observed in U373 cells stimulated with IL-1β 2 ng/ml and exposed to 10 μM CR4056 for the indicated time.

Another series has as its system rats. Briefly: Rotarod and open field tests (motor coordination and locomotor activity). It is filed as in vivo, rat. The conditions noted are these: suprapharmacological concentrations. The text has this:
These findings indicate that CR4056 could be a safe drug for treating neurodegenerative diseases, and, in particular, Alzheimer disease.
(In general: Falling from the rotarod earlier than controls is read as motor impairment.)

Entries after “also recorded” stand apart in the source; their conditions may differ.

Regarding `c1ccc(-c2ncc3cc(-n4ccnc4)ccc3n2)cc1` [CR4056, 2-phenyl-6-(1H-imidazol-1-yl)quinazoline], the “Time to reach the hidden platform, Morris water maze” value in series [1] was “significantly reduced the time taken to get to the platform”. Besides, the “Microglia activation in ipsilateral L5 spinal cord dorsal horn (Iba1-positive activated microglia)” value in series [2] is on record as “completely restored the basal conditions of microglia; also recorded: significantly reduced microglia activation”. Besides, the “Percentage of gene expression inhibition, IL-1β” value was 20% in the series on IL-1β (10 μM CR4056, 6 h) and 29% in the series with IL-1β (10 μM CR4056, 24 h). For the same compound, the “Impairment of motor coordination and locomotor activity (rotarod and open field tests)” value in the series with rats was “nor impairment of motor coordination and locomotor activity”.
